Here are results for 13 molecules from article PMC9687798, “Atypical Substrates of the Organic Cation Transporter 1” (Biomolecules, 2022).

Where two headings read alike, the source gives them in different places.

The target of series [1] is T1, human OCT1*1 (wild-type) (Homo sapiens, UniProt O15245).
T1 sequence (O15245 1-554): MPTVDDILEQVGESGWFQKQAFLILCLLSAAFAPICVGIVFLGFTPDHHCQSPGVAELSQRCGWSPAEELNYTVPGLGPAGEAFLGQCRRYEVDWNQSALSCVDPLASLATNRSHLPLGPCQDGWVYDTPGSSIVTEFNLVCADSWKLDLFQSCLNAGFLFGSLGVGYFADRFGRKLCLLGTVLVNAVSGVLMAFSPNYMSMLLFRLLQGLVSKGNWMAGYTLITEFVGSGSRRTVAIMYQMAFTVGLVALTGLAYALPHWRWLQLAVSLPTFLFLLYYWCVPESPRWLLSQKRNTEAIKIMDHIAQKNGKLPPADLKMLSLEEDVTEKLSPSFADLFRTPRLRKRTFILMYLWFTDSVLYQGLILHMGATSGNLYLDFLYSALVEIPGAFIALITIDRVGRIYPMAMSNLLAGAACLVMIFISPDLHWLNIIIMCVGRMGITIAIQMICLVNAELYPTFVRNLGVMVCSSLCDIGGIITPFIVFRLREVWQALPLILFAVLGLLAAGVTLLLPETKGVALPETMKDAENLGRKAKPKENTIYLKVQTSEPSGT
The experiment in a line: Cellular uptake ratio, OCT1-overexpressing HEK293 cells vs empty vector. In kind it is cell-based. How it is done: (§1) The wild-type cell lines of OCT1 and OCT2, as well as the variant cell lines OCT1*2 and *3, were generated using the Flp-In system (Thermo Fisher Scientific, Darmstadt, Germany) as described in previous publications. The cell line overexpressing OCT3 was a kind gift from Dr. Koepsell and Dr. Gorbulev (University of Würzburg, Germany). Cells transfected with the empty pcDNA5/FRT vector were used for the transport experiments as a control cell line. All cells were cultured approximately up to passage 30.
(§2) Forty-eight hours before the transport experiments, 600,000 cells were plated on 12-well plates pre-coated with poly-D-lysine and incubated at 37 °C with 5% CO2. The prepared 12-well plate with cells was positioned on a heating plate pre-warmed to 37 °C. After removing the medium, the cells were washed with 37 °C HBSS+ (10 mM HEPES in Hank’s balanced salt solution, pH 7.4). Then, one pre-defined concentration of a substrate was added to each well. The incubation period was stopped by adding 2 mL of 4 °C HBSS+ and removing the cells from the heating plate. The cells were washed twice with 4 °C HBSS+. For cell lysis, the cells were incubated for 15 min with 500 µL of 80% acetonitrile (LGC Standards, Wesel, Germany), which contained a respective internal standard (Table 1).
(§3) For concentration-dependent transport, the cells were incubated with defined substrate concentrations (0.1, 1, 10, 30, 100, 300, 600, 1000 µM) for the respective pre-defined incubation times. […] The uptake by a transporter was normalised to the uptake by empty vector-transfected cells. […] The results of transport experiments were normalized to the total protein concentration per well. Total protein quantification was performed using a bicinchoninic acid assay with bovine serum albumin as standard.
(§4) The ratios of cellular uptake were calculated by dividing the total uptake of transporter-overexpressing cells by the total uptake into empty vector transfected cells. The concentration-dependent cellular net uptake was used for analysis of transport kinetics by subtracting for each substrate concentration the uptake of empty vector-transfected cells from the uptake of transporter-overexpressing cells. […] The intrinsic clearance Clint was expressed with the ratio of Vmax and KM.

In series [2] the target is T2, OCT3 (Homo sapiens, UniProt O75751).
T2 construct: expressed in transfected cells; host or cells: HEK293, stably transfected; gift from Dr. Koepsell and Dr. Gorbulev (University of Würzburg)
T2 sequence (O75751 1-556): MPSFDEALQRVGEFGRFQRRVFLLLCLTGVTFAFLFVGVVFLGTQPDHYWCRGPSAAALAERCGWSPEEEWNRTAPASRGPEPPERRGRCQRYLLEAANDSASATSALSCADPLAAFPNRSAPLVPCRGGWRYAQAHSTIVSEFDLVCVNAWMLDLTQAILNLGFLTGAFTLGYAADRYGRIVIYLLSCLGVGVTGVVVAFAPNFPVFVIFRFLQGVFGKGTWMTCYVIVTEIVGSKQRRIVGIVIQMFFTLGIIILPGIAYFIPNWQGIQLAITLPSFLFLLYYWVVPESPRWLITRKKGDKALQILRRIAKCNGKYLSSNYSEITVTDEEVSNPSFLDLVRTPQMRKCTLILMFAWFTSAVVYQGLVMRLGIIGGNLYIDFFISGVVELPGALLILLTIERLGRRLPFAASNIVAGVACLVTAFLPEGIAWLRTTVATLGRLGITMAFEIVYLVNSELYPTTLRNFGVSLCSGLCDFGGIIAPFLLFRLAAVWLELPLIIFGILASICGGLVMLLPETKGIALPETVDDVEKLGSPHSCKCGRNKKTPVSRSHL
Put plainly: Cellular uptake ratio, OCT3-overexpressing HEK293 cells vs empty vector. In kind it is cell-based. How it is done:
as §1, §2, §3, §4

In series [3] the target is T1, human OCT1*1 (wild-type). Put plainly: Concentration-dependent uptake (transport kinetics) in HEK293 cells overexpressing OCT1 wild-type. The following applies: for Clint (±SEM): intrinsic clearance = ratio of Vmax and KM, OCT1 wild-type.
Series [4] has as its target T3, wild-type human OCT2 (Homo sapiens, UniProt O15244).
T3 sequence (O15244 1-555): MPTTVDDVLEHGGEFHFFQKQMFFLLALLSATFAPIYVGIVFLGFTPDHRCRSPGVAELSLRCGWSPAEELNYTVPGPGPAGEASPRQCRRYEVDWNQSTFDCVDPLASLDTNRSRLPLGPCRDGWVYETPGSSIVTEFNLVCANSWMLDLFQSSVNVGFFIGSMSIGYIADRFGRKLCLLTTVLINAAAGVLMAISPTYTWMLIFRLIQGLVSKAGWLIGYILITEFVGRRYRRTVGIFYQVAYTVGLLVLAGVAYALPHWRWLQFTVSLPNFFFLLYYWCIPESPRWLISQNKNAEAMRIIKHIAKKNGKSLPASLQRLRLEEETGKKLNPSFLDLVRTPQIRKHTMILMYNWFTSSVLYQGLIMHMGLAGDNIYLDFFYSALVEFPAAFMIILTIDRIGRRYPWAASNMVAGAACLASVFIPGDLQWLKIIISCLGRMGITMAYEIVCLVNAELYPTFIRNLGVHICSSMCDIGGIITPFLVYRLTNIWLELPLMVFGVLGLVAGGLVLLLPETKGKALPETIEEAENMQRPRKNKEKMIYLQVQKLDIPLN
Put plainly: Cellular uptake ratio, OCT2-overexpressing HEK293 cells vs empty vector. The series is classed as cell-based. On the procedure:
as §1, §2, §3, §4

[5] abbreviates: based on ratio uptake data at 1 µM.
Setting [6] is: net uptake (OCT1 minus empty vector), HEK293, 0.1-1000 µM substrate, Michaelis–Menten.
The mark [7] stands for this setting: good >5, poor 1–5, non-substrate <1 µL/mg protein/min or uptake not above empty vector.
Setting [8] is: based on ratio uptake data at 100 µM (footnote *).

With `C[n+]1ccc(-c2ccccc2)cc1` [MPP^+, 1-methyl-4-phenylpyridinium], in series [1] (1 µM and 100 µM substance), the “uptake ratio by OCT1 (normalised to empty vector)” value was “up to 30”. Moreover, in series [1] (setting [5]), the OCT1 transport category entry is reported as “++ (very good substrates of OCTs that have an intrinsic clearance >15 or show an uptake ratio >10)”. The “uptake ratio by OCT3 (normalised to empty vector)” value in series [2] (1 µM and 100 µM substance) is “relevant uptake”. For the same molecule, in series [2] (setting [5]), the OCT3 transport category entry is “++ (very good substrates of OCTs that have an intrinsic clearance >15 or show an uptake ratio >10)”. The “Clint (±SEM)” value in series [3] came to 20.8 ± 5.04 µL/mg Protein/min. Also, in series [3] (setting [6]), the “Vmax (±SEM)” value was 2263 ± 184 pmol/mg Protein/min. The Michaelis constant (Km) (commonly the substrate concentration at which the rate is half of its maximum) in series [3] (read-out: KM (±SEM), net uptake (OCT1 minus empty vector), HEK293, 0.1-1000 µM substrate, Michaelis–Menten) worked out at 108 ± 17.4 µM. Also, the OCT2 transport category result in series [4] (setting [5]) is given as “++ (very good substrates of OCTs that have an intrinsic clearance >15 or show an uptake ratio >10)”.

On to `C[N+]1(C)CCC[C@H]1C(=O)[O-]` [Stachydrine, stachydrine], for which the OCT1 transport category in series [1] (setting [5]) is 0 (no transport by OCT1, OCT2, and OCT3 occurred (i.e., no kinetic parameters or uptake ratio <2 without significance)). Also, the OCT3 transport category in series [2] (setting [5]) is 0 (no transport by OCT1, OCT2, and OCT3 occurred (i.e., no kinetic parameters or uptake ratio <2 without significance)). In addition, the “OCT1 substrate classification from concentration-dependent uptake” value (“OCT1 substrate classification” for short) in series [3] (setting [7]) is “very poor OCT1-mediated transport”. Besides, the “Vmax (±SEM)” value in series [3] (setting [6]) amounted to 238 ± 134 pmol/mg Protein/min. The OCT2 transport category in series [4] (setting [5]) was 0 (no transport by OCT1, OCT2, and OCT3 occurred (i.e., no kinetic parameters or uptake ratio <2 without significance)).

As for `Nc1nc(O)c2ncn(COC(CO)CO)c2n1` [Ganciclovir, ganciclovir], the OCT3 transport category in series [2] (setting [5]) is 0 (no transport by OCT1, OCT2, and OCT3 occurred (i.e., no kinetic parameters or uptake ratio <2 without significance)).

On to `Nc1ccn([C@@H]2O[C@H](CO)[C@@H](O)[C@@H]2O)c(=O)n1` [Cytarabine, cytarabine], for which the “OCT1 substrate classification” value in series [3] was “none of the four antimetabolites showed uptake by OCT1”.

Turning to `Nc1ccn([C@@H]2O[C@H](CO)[C@@H](O)C2(F)F)c(=O)n1` [Gemcitabine, gemcitabine], the “OCT1 substrate classification” value in series [3] (setting [7]) is reported as “none of the four antimetabolites showed uptake by OCT1”.

For the molecule `Cc1ccc(NC(=O)c2ccc(CN3CCN(C)CC3)cc2)cc1Nc1nccc(-c2cccnc2)n1` [Imatinib, imatinib], the “uptake by OCT1 (normalised to empty vector)” value in series [1] was “did not show uptake by OCT1”.

Take `Nc1nc2c(ncn2COCCO)c(=O)[nH]1` [Acyclovir, acyclovir]: the OCT3 transport category in series [2] (setting [5]) is 0 (no transport by OCT1, OCT2, and OCT3 occurred (i.e., no kinetic parameters or uptake ratio <2 without significance)).

Consider `C[C@H]1COc2c(N3CCN(C)CC3)c(F)cc3c(=O)c(C(=O)O)cn1c23` [Levofloxacin, levofloxacin], for which the OCT3 transport category in series [2] (setting [5]) is 0 (no transport by OCT1, OCT2, and OCT3 occurred (i.e., no kinetic parameters or uptake ratio <2 without significance)). For the same molecule, in series [3], the “OCT1 substrate classification” value is reported as “poor substrate of OCT1” and the “Clint (±SEM)” value is recorded as 3.77 ± 2.77 µL/mg Protein/min.

`O=c1ncccn1[C@@H]1O[C@H](CO)[C@@H](O)[C@H]1O` [Zebularine, zebularine]: the “OCT1 substrate classification” value in series [3] (setting [7]) is “none of the four antimetabolites showed uptake by OCT1”.

Regarding `Nc1ncn([C@H]2C[C@H](O)[C@@H](CO)O2)c(=O)n1` [Decitabine, decitabine], the “OCT1 substrate classification” value in series [3] (setting [7]) is on record as “none of the four antimetabolites showed uptake by OCT1”.

On to `C[C@H](CS)C(=O)N1CCC[C@H]1C(=O)O` [Captopril, captopril], for which the OCT3 transport category in series [2] (setting [5]) was 0 (no transport by OCT1, OCT2, and OCT3 occurred (i.e., no kinetic parameters or uptake ratio <2 without significance)).

As to `C[C@@](Cc1ccc(O)c(O)c1)(NN)C(=O)O` [Carbidopa, carbidopa], the OCT1 transport category in series [1] (setting [8]) is 0 (no transport by OCT1, OCT2, and OCT3 occurred (i.e., no kinetic parameters or uptake ratio <2 without significance)). Further, the OCT3 transport category in series [2] (setting [8]) was 0 (no transport by OCT1, OCT2, and OCT3 occurred (i.e., no kinetic parameters or uptake ratio <2 without significance)). Also, the “OCT1 substrate classification” value in series [3] (setting [7]) was “linear increase in total uptake of both cell lines”. Moreover, the OCT2 transport category in series [4] (setting [8]) is 0 (no transport by OCT1, OCT2, and OCT3 occurred (i.e., no kinetic parameters or uptake ratio <2 without significance)).

`C=C1[C@H](CO)[C@@H](O)C[C@@H]1n1cnc2c(=O)[nH]c(N)nc21` [Entecavir, entecavir]: the OCT3 transport category in series [2] (setting [5]) is 0 (no transport by OCT1, OCT2, and OCT3 occurred (i.e., no kinetic parameters or uptake ratio <2 without significance)).
